One assay has as its system MRSA USA300 FPR3757. Briefly: microbe, parasite or virus in culture. It is filed as cell-based, Staphylococcus aureus. Particulars: for FIC Index: WT USA300, combination of cannabidiol with the respective antibiotic, synergy <= 0.5, no interaction 0.5-4.0, antagonism > 4. As for the experimental part:
(§1) The resistant bacterium MRSA USA300 FPR3757 (USA300) was the main used bacterium throughout this study. MRSA was grown in Brain Heart Infusion (BHI) or Müeller Hinton (MH) media on plate or in liquid cultures with agitation at 37° C.
An ON culture was made by inoculating a bacterial colony in either 5 mL of MH or BHI and incubating at 37° C. with agitation. The antibiotic of interest was added to a row of a sterile 96-well plate (VWR) and a serial dilution was made down the rows containing 50 μL of MH or BHI media in each well, resulting in 2-fold dilution for each row. The ON culture was diluted to OD625 at approximately 1.0 followed by a 1:100 dilution to approximately OD625=0.01 of which 50 μL was added to each well to a final volume of 100 μL. The 96-well plate was incubated at 37° C. with shaking at 225 rpm for approximately 18-24 hours. Presence and absence of growth were determined by visual appearance.
B) The other screen was based on fractional inhibitory concentration (FIC) index.

For the next assay, the system named is MRSA USA300. As to the kind of experiment: Micro dilution growth experiments using oCelloScope, CBD combined with antibiotics (FIG. 1). Format: cell-based, Staphylococcus aureus. Particulars: for synergistic potential in growth curves: combination with CBD 1-2 μg/mL, bacitracin 16, daptomycin 4, tetracycline 16, fosfomycin 16, dicloxacillin 0.0625, chlorhexidine 0.25, vancomycin 0.5 μg/mL (FIG. 1). As for the experimental part: BCA: Background corrected absorption. ? Growth control, ? CBD, -▴- Antibiotic, ? Combination.
as §1
An ON culture was made by inoculating a bacterial colony in either 5 mL of MH or BHI at incubated at 37° C. with agitation. 25 μL of specific concentrations of the antibiotic and cannabinoid to be tested was added to the desired wells of a sterile 96-well plate (Thermo Scientific). 25 μL of MH or BHI media was added to the wells only containing one of the two compounds tested. The bacterial ON culture was diluted to a final OD600 nm of 0.005 and 50 μL was dispensed into each well to a final volume of 100 μL. To decrease evaporation, 2 mL of pre-heated water was added to the corners of the 96-well plate containing cavities. The plate was placed in the oCelloScope inside an incubator at 37° C. Illumination level and focus was adjusted for each well and the growth was measured for approximately 25 hours. Measurements were performed every half an hour for the first half of the time and every hour for the last half using the UniExplorer software. Data retrieved was given in Background corrected absorption (BCA), formerly known as pixel histogram summation (PHS), an algorithm enabling determination of bacterial growth kinetics resulting from images taken with the oCelloScope camera.
A) A screen was performed using the Philips oCelloScope enabling measurements of bacterial growth in presence or absence of either cannabidiol alone or in combination with an antibiotic or antimicrobial, through a 3D scanning system in 96-well plates.

Assay [1] addresses T1, bacterial undecaprenyl pyrophosphate (UPP) synthase (Staphylococcus aureus, UniProt P60477).
T1 sequence (P60477 1-256): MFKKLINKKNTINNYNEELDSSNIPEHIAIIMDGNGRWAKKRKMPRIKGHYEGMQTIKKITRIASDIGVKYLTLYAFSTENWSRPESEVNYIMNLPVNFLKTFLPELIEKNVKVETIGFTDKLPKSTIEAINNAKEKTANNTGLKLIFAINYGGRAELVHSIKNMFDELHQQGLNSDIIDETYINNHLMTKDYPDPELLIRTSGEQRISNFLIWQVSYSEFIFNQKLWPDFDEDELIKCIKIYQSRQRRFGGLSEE
To be noted: The Journal of Antibiotics 69, 798-805 (2016); cited from earlier work.

For assay [2], the system named is Gram-positive bacteria including methicillin-resistant Staphylococcus aureus (MRSA). To be noted: particularly against Gram-positive bacteria including MRSA; cited from earlier work.

In brackets after ≈: the same amount, converted by molar mass.

On to `CCCCCCCCCC(=O)N[C@@H](Cc1c[nH]c2ccccc12)C(=O)N[C@H](CC(N)=O)C(=O)N[C@@H](CC(=O)O)C(=O)N[C@@H]1C(=O)NCC(=O)N[C@@H](CCCN)C(=O)N[C@@H](CC(=O)O)C(=O)N[C@H](C)C(=O)N[C@@H](CC(=O)O)C(=O)NCC(=O)N[C@H](CO)C(=O)N[C@@H]([C@H](C)CC(=O)O)C(=O)N[C@@H](CC(=O)c2ccccc2N)C(=O)O[C@@H]1C` [Daptomycin], for which the MIC in the assay with MRSA USA300 FPR3757 (USA300) is 16 µg/mL (≈ 9.87 µM). Also, the “synergistic potential in growth curves” value in the assay on MRSA USA300 is recorded as “to some degree”.
`Cc1onc(-c2c(Cl)cccc2Cl)c1C(=O)N[C@@H]1C(=O)N2[C@@H]1SC(C)(C)[C@@H]2C(=O)O` [Dicloxacillin] had an MIC in the assay with MRSA USA300 FPR3757 (Staphylococcus aureus) of 0.25 µg/mL (≈ 0.532 µM). Moreover, the “FIC Index” value in the assay on MRSA USA300 FPR3757 is 2. For the same compound, in the assay with MRSA USA300, the “synergistic potential in growth curves” value is recorded as “no synergistic potential”.
`C[C@@H]1O[C@@H]1P(=O)(O)O` [Fosfomycin]: the MIC in the assay with MRSA USA300 FPR3757 (Staphylococcus aureus) stood at 32 µg/mL (≈ 232 µM). Moreover, the “synergistic/antagonistic potential in growth curves, lower concentration” value with MRSA USA300 (combination with CBD 1 μg/mL, fosfomycin 8 μg/mL (FIG. 1E)) is recorded as “antagonistic potential”. Further, the “synergistic potential in growth curves” value with MRSA USA300 is reported as “to some degree”.
On to `COc1cc(O)c2c(O)c3c(c4c2c1C1(C4)C(C)=CCCC1(C)C)C(O)C1(O)CC(=O)C(C(C)=O)=C(O)C1(O)C3=O` (stereo not drawn) [Spirohexaline], for which, in assay [1], the IC50 is 9 µM. Besides, in assay [2], the antimicrobial activity result was “showed antimicrobial activity”.
Consider `CN[C@H](CC(C)C)C(=O)N[C@H]1C(=O)N[C@@H](CC(N)=O)C(=O)N[C@H]2C(=O)N[C@H]3C(=O)N[C@H](C(=O)N[C@H](C(=O)O)c4cc(O)cc(O)c4-c4cc3ccc4O)[C@H](O)c3ccc(c(Cl)c3)Oc3cc2cc(c3O[C@@H]2O[C@H](CO)[C@@H](O)[C@H](O)[C@H]2O[C@H]2C[C@](C)(N)[C@H](O)[C@H](C)O2)Oc2ccc(cc2Cl)[C@H]1O` [Vancomycin], for which the MIC against MRSA USA300 FPR3757 (Staphylococcus aureus) stood at 2 µg/mL (≈ 1.38 µM). The “FIC Index” value in the assay with MRSA USA300 FPR3757 was found to be 2. In addition, in the assay on MRSA USA300, the “synergistic potential in growth curves” value was “no synergistic potential”.
In the case of Viridicatumtoxin, the IC50 in assay [1] was 4 µM. Also, the antimicrobial activity entry in assay [2] was “showed antimicrobial activity”.

The record behind these values is patent publication US11266609B2, “Bacitracin and/or daptomycin combined with cannabidiol for treatment of bacterial infections” (priority 2017, dated 2022).
